ChEMBL document CHEMBL1909046, “DrugMatrix in vitro pharmacology data”

Assays:
[1] = DRUGMATRIX: Imidazoline I2, Central radioligand binding (ligand: [3H] Idazoxan); assay type: cell membranes, Rattus norvegicus, Wistar, Cerebral cortex, Membrane; details: Not Active = under 50% inhibition at 10 µM
[2] = DRUGMATRIX: Calcium Channel Type L, Dihydropyridine radioligand binding (ligand: [3H] Nitrendipine); assay type: cell membranes, Rattus norvegicus, Wistar, Cerebral cortex, Membrane; details: Not Active = under 50% inhibition at 10 µM
[3] = biological target: T1, C-X-C chemokine receptor type 1 (Homo sapiens, UniProt P25024); further: in other assays of this panel Not Active means under 50% inhibition at 10 µM
T1 sequence (P25024 whole entry): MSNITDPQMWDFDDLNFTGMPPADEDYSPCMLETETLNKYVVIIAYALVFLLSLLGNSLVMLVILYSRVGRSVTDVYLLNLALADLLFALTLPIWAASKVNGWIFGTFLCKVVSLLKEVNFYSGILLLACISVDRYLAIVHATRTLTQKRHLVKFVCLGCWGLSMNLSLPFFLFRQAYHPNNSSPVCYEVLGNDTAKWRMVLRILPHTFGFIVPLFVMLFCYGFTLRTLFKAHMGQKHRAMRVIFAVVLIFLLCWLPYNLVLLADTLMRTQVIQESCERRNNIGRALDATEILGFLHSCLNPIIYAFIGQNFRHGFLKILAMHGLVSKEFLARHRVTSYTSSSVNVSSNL

[4] = DRUGMATRIX: Purinergic P2X radioligand binding (ligand: [3H] alpha, beta-Methylene-ATP); assay type: cell membranes, Oryctolagus cuniculus, New Zealand albino, Urinary bladder, Membrane; details: Not Active = under 50% inhibition at 10 µM
[5] = biological target: Kappa-type opioid receptor (Homo sapiens, UniProt P41145); test: DRUGMATRIX: Opiate kappa (OP2, KOP) radioligand binding (ligand: [3H] Diprenorphine); assay type: cell membranes, HEK293, Membrane; details: hek293; Not Active = under 50% inhibition at 10 µM
Carbonic anhydrase 2 = Carbonic anhydrase 2 (Homo sapiens, UniProt P00918); test: DRUGMATRIX: Carbonic Anhydrase II enzyme inhibition (substrate: 4-Nitrophenyl acetate (4-NPA)); assay type: tissue-based; details: erythrocyte; Not Active = under 50% inhibition at 10 µM
[6] = biological target: Vascular endothelial growth factor receptor 1 (Homo sapiens, UniProt P17948); test: biochemical; assay type: cell-based, HUVEC; details: huvec; further: in other assays of this panel Not Active means under 50% inhibition at 10 µM
Vascular endothelial growth factor receptor 1, sequence (P17948 whole entry): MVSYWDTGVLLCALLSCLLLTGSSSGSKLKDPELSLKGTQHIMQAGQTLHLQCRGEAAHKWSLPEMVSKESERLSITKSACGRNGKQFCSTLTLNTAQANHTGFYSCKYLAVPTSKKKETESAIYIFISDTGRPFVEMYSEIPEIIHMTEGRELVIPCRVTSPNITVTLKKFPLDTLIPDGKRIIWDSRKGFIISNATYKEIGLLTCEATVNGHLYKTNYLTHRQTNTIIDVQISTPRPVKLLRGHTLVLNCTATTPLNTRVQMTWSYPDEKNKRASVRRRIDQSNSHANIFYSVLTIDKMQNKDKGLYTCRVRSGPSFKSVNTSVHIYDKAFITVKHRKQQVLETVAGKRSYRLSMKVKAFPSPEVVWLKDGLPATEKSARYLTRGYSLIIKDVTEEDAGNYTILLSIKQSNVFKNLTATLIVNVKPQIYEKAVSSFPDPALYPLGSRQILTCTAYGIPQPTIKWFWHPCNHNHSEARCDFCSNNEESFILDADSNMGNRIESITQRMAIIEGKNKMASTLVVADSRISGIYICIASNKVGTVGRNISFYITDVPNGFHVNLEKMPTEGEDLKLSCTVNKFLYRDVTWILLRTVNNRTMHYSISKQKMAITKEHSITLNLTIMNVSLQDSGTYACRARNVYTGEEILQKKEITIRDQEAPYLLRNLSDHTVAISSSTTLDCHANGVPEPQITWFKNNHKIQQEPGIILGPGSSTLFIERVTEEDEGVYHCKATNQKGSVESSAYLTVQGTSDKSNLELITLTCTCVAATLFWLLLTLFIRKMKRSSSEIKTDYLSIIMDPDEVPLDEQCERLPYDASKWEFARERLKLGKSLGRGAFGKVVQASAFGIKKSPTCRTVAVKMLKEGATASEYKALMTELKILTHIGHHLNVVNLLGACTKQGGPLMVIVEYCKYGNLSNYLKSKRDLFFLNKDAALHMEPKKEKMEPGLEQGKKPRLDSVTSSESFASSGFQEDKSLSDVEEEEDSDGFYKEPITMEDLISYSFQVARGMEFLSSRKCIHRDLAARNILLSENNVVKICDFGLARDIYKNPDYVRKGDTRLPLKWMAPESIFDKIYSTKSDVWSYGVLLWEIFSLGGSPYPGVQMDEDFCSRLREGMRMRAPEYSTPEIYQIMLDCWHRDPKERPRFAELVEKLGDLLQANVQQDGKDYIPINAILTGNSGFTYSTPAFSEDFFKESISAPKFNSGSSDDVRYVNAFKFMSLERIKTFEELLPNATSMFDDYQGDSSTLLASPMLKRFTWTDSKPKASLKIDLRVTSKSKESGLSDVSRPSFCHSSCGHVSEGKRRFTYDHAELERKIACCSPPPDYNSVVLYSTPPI

Kappa-type opioid receptor, sequence (P41145 whole entry): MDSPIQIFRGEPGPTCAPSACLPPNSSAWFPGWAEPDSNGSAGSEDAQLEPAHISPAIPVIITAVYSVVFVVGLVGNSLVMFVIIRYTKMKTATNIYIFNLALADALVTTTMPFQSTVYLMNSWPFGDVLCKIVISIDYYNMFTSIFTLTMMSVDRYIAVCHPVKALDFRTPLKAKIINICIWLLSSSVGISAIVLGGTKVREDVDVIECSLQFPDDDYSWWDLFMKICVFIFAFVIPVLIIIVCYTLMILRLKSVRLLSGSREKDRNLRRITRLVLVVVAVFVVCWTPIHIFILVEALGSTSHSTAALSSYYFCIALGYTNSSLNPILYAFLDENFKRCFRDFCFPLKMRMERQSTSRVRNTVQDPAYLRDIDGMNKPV

Row | Compound | IC50 [1] | Ki [1] | IC50 [2] | Ki [2] | IC50 [3] | IC50 [4] | Ki [4] | IC50 [5] | IC50 (Carbonic anhydrase 2) | IC50 [6] | IC50 ([1]; read-out: IC50) [nM] | Ki ([1]; read-out: Ki) [nM]
1 | CC(C)NNC(=O)c1ccncc1 [IPRONIAZID] | Not Active | Not Active | Not Active | Not Active | Not Active | Not Active | Not Active | Not Active | Not Active | Not Active |  | 
2 | CCCNCC(O)COc1ccccc1C(=O)CCc1ccccc1 (stereo not given) [PROPAFENONE] | Not Active | Not Active | Not Active | Not Active | Not Active | Not Active | Not Active | Not Active | Not Active | Not Active |  | 
3 | O=c1cc(N2CCOCC2)oc2c(-c3ccccc3)cccc12 [LY-294002] | Not Active | Not Active | Not Active | Not Active | Not Active | Not Active | Not Active | Not Active | Not Active | Not Active |  | 
4 | NCCCC(O)(P(=O)(O)O)P(=O)(O)O [ALENDRONIC ACID] | Not Active | Not Active | Not Active | Not Active | Not Active | Not Active | Not Active | Not Active | Not Active | Not Active |  | 
5 | Nc1ccc2c3c(cccc13)C(=O)NC2=O | Not Active | Not Active | Not Active | Not Active | Not Active | Not Active | Not Active | Not Active | Not Active | Not Active |  | 
6 | CC(C)(C)NC(=O)[C@H]1CC[C@H]2[C@@H]3CC[C@H]4NC(=O)C=C[C@]4(C)[C@H]3CC[C@]12C [FINASTERIDE] | Not Active | Not Active | Not Active | Not Active | Not Active | Not Active | Not Active | Not Active | Not Active | Not Active |  | 
7 | CC[C@H](C)[C@H]1O[C@]2(C=C[C@@H]1C)C[C@@H]1C[C@@H](C/C=C(\C)[C@@H](O[C@H]3C[C@H](OC)[C@@H](O[C@H]4C[C@H](OC)[C@@H](O)[C@H](C)O4)[C@H](C)O3)[C@@H](C)/C=C/C=C3\CO[C@@H]4[C@H](O)C(C)=C[C@@H](C(=O)O1)[C@]34O)O2.CO[C@H]1C[C@H](O[C@H]2[C@H](C)O[C@@H](O[C@@H]3/C(C)=C/C[C@@H]4C[C@@H](C[C@]5(C=C[C@H](C)[C@@H](C(C)C)O5)O4)OC(=O)[C@@H]4C=C(C)[C@@H](O)[C@H]5OC/C(=C\C=C\[C@@H]3C)[C@]54O)C[C@@H]2OC)O[C@@H](C)[C@@H]1O [ABAMECTIN] | Not Active | Not Active | Not Active | Not Active | Not Active | Not Active | Not Active | Not Active | Not Active | Not Active |  | 
8 | Cn1c(=O)c2[nH]cnc2n(C)c1=O.Cn1c(=O)c2[nH]cnc2n(C)c1=O.NCCN [AMINOPHYLLINE] | Not Active | Not Active | Not Active | Not Active | Not Active | Not Active | Not Active | Not Active | Not Active | Not Active |  | 
9 | C#C[C@]1(OC(C)=O)CC[C@H]2[C@@H]3CCC4=C[C@@H](OC(C)=O)CC[C@@H]4[C@H]3CC[C@@]21C [ETHYNODIOL DIACETATE] | Not Active | Not Active | Not Active | Not Active | Not Active | Not Active | Not Active | Not Active | Not Active | Not Active |  | 
10 | CN/C(=N\CCSCc1nc[nH]c1C)NC#N [CIMETIDINE] | Not Active | Not Active | Not Active | Not Active | Not Active | Not Active | Not Active | Not Active | Not Active | Not Active |  | 
11 | COc1ccc2c3c1O[C@H]1C[C@@H](O)C=C[C@@]31CCN(C)C2 [GALANTAMINE] | Not Active | Not Active | Not Active | Not Active | Not Active | Not Active | Not Active | Not Active | Not Active | Not Active |  | 
12 | OC(CCCN1CCCCC1)(c1ccccc1)c1ccccc1 [DIPHENIDOL] | Not Active | Not Active | Not Active | Not Active | Not Active | Not Active | Not Active | Not Active | Not Active | Not Active |  | 
13 | CCC(=O)O[C@]1(C(=O)CCl)[C@@H](C)C[C@H]2[C@@H]3CCC4=CC(=O)C=C[C@]4(C)[C@@]3(F)[C@@H](O)C[C@@]21C [CLOBETASOL PROPIONATE] | Not Active | Not Active | Not Active | Not Active | Not Active | Not Active | Not Active | Not Active | Not Active | Not Active |  | 
14 | CCCN(CCC)S(=O)(=O)c1ccc(C(=O)O)cc1 [PROBENECID] | Not Active | Not Active | Not Active | Not Active | Not Active | Not Active | Not Active | Not Active | Not Active | Not Active |  | 
15 | O=C(O)CCNC(=O)c1ccccc1 [BETAMIPRON] | Not Active | Not Active | Not Active | Not Active | Not Active | Not Active | Not Active | Not Active | Not Active | Not Active |  | 
16 | C[C@H]1O[C@@H](n2cc(F)c(=O)[nH]c2=O)[C@H](O)[C@@H]1O [DOXIFLURIDINE] | Not Active | Not Active | Not Active | Not Active | Not Active | Not Active | Not Active | Not Active | Not Active | Not Active |  | 
17 | CC[C@H]1CN2CCc3cc(OC)c(OC)cc3[C@@H]2C[C@@H]1C[C@H]1NCCc2cc(OC)c(OC)cc21 [EMETINE] | Not Active | Not Active | Not Active | Not Active | Not Active | Not Active | Not Active | Not Active | Not Active | Not Active |  | 
18 | O=c1cnn([C@@H]2O[C@H](CO)[C@@H](O)[C@H]2O)c(=O)[nH]1 [6-AZAURIDINE] | Not Active | Not Active | Not Active | Not Active | Not Active | Not Active | Not Active | Not Active | Not Active | Not Active |  | 
19 | COC(=O)CCc1ccc(OCC(O)CNC(C)C)cc1 (stereo not given) [ESMOLOL] | Not Active | Not Active | Not Active | Not Active | Not Active | Not Active | Not Active | Not Active | Not Active | Not Active |  | 
20 | COc1cc(N)c(Cl)cc1C(=O)NC1CCN(CCCOc2ccc(F)cc2)CC1OC (stereo not given) [CISAPRIDE] | Not Active | Not Active | Not Active | Not Active | Not Active | Not Active | Not Active | Not Active | Not Active | Not Active |  | 
21 | C[C@@H]1C[C@H]2[C@@H]3CCC4=CC(=O)C=C[C@]4(C)[C@@]3(F)[C@@H](O)C[C@]2(C)[C@@]1(O)C(=O)CO [DEXAMETHASONE] | Not Active | Not Active | Not Active | Not Active | Not Active | Not Active | Not Active | Not Active | Not Active | Not Active |  | 
22 | O=C(c1ccccc1C(F)(F)F)N1CCC(Cc2ccccc2)CC1 | Not Active | Not Active | Not Active | Not Active | Not Active | Not Active | Not Active | Not Active | Not Active | Not Active |  | 
23 | Brc1c(NC2=NCCN2)ccc2nccnc12 [BRIMONIDINE] |  |  | Not Active | Not Active | Not Active | Not Active | Not Active | Not Active | Not Active | Not Active | 74 | 49
24 | CC1(C)S[C@@H]2[C@H](NC(=O)[C@H](N)c3ccccc3)C(=O)N2[C@H]1C(=O)O [AMPICILLIN] | Not Active | Not Active | Not Active | Not Active | Not Active | Not Active | Not Active | Not Active | Not Active | Not Active |  | 
